# Test system: TPC1 cells
# Assay: AnnexinV/PI flow cytometry apoptosis assay in TPC1 cells
# Assay type: cell-based, human
# Experimental: FIG. 25. TPC1 cells were grown in 6 well dishes at 70-80% confluence in growth media supplemented with 10% FBS. TPC1 cells were treated with either AD80, the MEK inhibitor PD325901 or a combination of both inhibitors at indicated concentrations for 72 h. Induction of apoptosis was measured using flow cytometry based counting of AnnexinV/PI positive cells.
compound,measurement,setting,value
CC(C)n1nc(-c2ccc(NC(=O)Nc3cc(C(F)(F)F)ccc3F)cc2)c2c(N)ncnc21 [AD80],induction of apoptosis (AnnexinV/PI positive cells),"combination with MEK inhibitor PD325901, 72 h",robust induction of apoptosis
same,induction of apoptosis (AnnexinV/PI positive cells),"single agent, 72 h",does not lead to induction of apoptosis

# From patent US9321772B2, “Substituted pyrazolo[3,4-D]pyrimidines and uses thereof” (The Regents of the University of California, priority 2011, dated 2016)
